Values after ≈ are worked out from the molar mass of the structure shown.

What is called solubility is the concentration that dissolves in the medium under given conditions. In turn, `CCN(C(=O)Oc1cccc(NC(=O)OC(C)C)c1)c1ccccc1` came in with a solubility (25 °C) of 8.76 µM (≈ 3 µg/mL).

`CCOC(=O)C(C)Oc1ccc(Oc2nc3ccc(Cl)cc3o2)cc1` (stereo not given): for the setting “25 °C”, the solubility came out at 2.59 µM (≈ 0.937 µg/mL).

Regarding `Clc1ccc(Sc2cc(Cl)c(Cl)cc2Cl)cc1`, for the setting “20 °C”, the solubility was 0.0926 µM (≈ 0.03 µg/mL).

`CON(C(=O)c1cc(C)oc1C)C1CCCCC1` displayed a solubility (20 °C) of 1.19 µM (≈ 0.3 µg/mL).

Take `Cc1cc(Cl)ccc1NC(=S)N(C)C`: the solubility (20 °C) amounted to 219 µM (≈ 50 µg/mL).

Molecule `CC(=O)OC[C@H]([C@H](OC(C)=O)c1ccccc1)[N+](=O)[O-]` came in with a solubility (20 °C) of 107 µM (≈ 30 µg/mL).

`CCOC(=O)CNc1nc(Cl)nc(NC(C)C)n1` showed a solubility (25 °C) of 2740 µM (≈ 750 µg/mL).

For the molecule `O=C1OCCC1N(C(=O)C1CC1)c1cccc(Cl)c1` (stereo not given), the solubility (25 °C) is 2050 µM (≈ 574 µg/mL).

Consider `CCS(=O)(=O)c1nnc(N(C)C(=O)NC)s1`, for which the solubility (20 °C) was determined as 11400 µM (≈ 3000 µg/mL).

`O=S(=O)(O)OCCOc1ccc(Cl)cc1Cl` displayed a solubility of 871000 µM (≈ 250000 µg/mL).

The values above are taken from the OPERA property sets (Mansouri et al. 2018).
